# Article PMC3726442 (PLoS ONE, 2013)
# Experiment: Plasma concentrations of tamoxifen and its metabolites in breast cancer patients on tamoxifen, by HPLC-tandem mass spectrometry
# [1] = all samples analyzed, n = 125, before daily 20 mg TAM dose
# Description: One hundred and thirty five Caucasian patients of Spanish descent recently diagnosed with BC were recruited from the center Fundación Tejerina-Centro de Patología de la Mama (Madrid). Premenopausal and postmenopausal women were enrolled when started on TAM as standard adjuvant therapy after undergoing primary surgery, radiation and adjuvant chemotherapy. Patients were excluded if they had started TAM therapy simultaneously with either adjuvant chemotherapy or adjuvant radiation therapy (or both) or if they were undergoing other adjuvant endocrine therapies. Patients who were pregnant or breast-feeding were also excluded from the study. […] Blood samples were collected within 3 to 60 months of initiating TAM treatment.
# Venous blood was collected from all 135 subjects before taking their daily 20- mg dose of TAM. Ten milliliters of heparin plasma were separated by centrifugation and immediately stored at −20°C until analysis. In addition, one milliliter of an EDTA blood sample was taken for subsequent DNA extraction and genotyping. DNA was isolated from peripheral leukocytes using a QIAamp DNA Blood Mini Kit® (Qiagen, Madrid, Spain) according to the manufacturer’s instructions. The DNA concentration was determined and adjusted to 2–20 ng/ µL.
# TAM and its metabolites were separated and quantified by high-pressure liquid chromatography-tandem mass spectrometry using an Agilent HPLC 1200 system. HPLC experiments were performed using a binary pump G1312A, a G1316A column oven, G1379B degasser and an automatic injector H-ALS G1367B. Mobile phase A and phase B consisted of 0.1% formic acid in water and acetonitrile, respectively. Mobile phases A and B were pumped through a ZORBAX Eclipse XDB-C18 column (150 mm×2.1 mm I.D., 3.5 µm, Agilent USA) at a flow rate of 0.2 mL/min using the gradient shown in Table 1. Separation was conducted at 30°C. 15- µL aliquots were injected and the autosampler needle was rinsed in acetonitrile/water solution (1∶1). The total run time was 20 min. During the first 4.0 and last 2.0 min, the eluate was removed using a divert valve to avoid endogenous compounds entering the mass spectrometer.
# As a detector, we used an A 6410 Triple Quadrupole mass spectrometer (Agilent Technologies, USA) equipped with a heated electrospray ionization source (Thermo Fisher Scientific, Waltham, MA, USA) operating in positive ion mode. For quantification, multiple reaction monitoring (MRM) chromatograms were acquired using Mass Hunter software version B.01.04 (Agilent Technologies, USA). Positive ions were created at atmospheric pressure. Quadrupoles operated at unit resolution (0.7 Da).
# A 300- µL volume of 1% formic acid in acetonitrile containing internal standards was added to a 100- µL serum aliquot. After vortexing and centrifugation, the clear supernatant was transferred to a HybridSPE column (Supelco) and the eluents stored at 2–8°C until analysis. Samples were analyzed in triplicate.
# Descriptive statistics were calculated using standard methods. Metabolic ratios were calculated as the concentration of substrate/concentration of metabolite. The non-normal distribution of data was confirmed by the Kolmogorov-Smirnov test. Levels of TAM, metabolites and ratios between genotype groups were compared using Wilcoxon-Mann-Whitney or Kruskal-Wallis tests. All statistical tests (two-sided) were performed using SPSS software (version 18.0 SPSS, Chicago, IL). Significance was set at a p<0.05.
compound,measurement,setting,value
"CC/C(=C(\c1ccccc1)c1ccc(OCC[N+](C)(C)[O-])cc1)c1ccccc1 [Tamoxifen-N-oxide, tamoxifen-N-oxide]",mean plasma concentration (±SD),[1],50.88 ± 23.09 ng/mL
same,"plasma concentration, mean ±SD","genotype CYP2D6 wt/P, n = 26",54.04 ± 25.63 ng/mL
same,"plasma concentration, mean ±SD","genotype SULT1A1 *2/*2, n = 15",56.02 ± 24.50 ng/mL
same,"plasma concentration, median","genotype SULT1A1 *2/*2, n = 15",59.27 ng/mL
same,"plasma concentration, range","genotype SULT1A1 *2/*2, n = 15",(15.69–99.37) ng/mL
same,"plasma concentration, mean ±SD","genotype SULT1A1 wt/*2, n = 46",51.02 ± 27.88 ng/mL
same,"plasma concentration, median","genotype SULT1A1 wt/*2, n = 46",41.84 ng/mL
same,"plasma concentration, range","genotype SULT1A1 wt/*2, n = 46",(17.43–142.97) ng/mL
same,"plasma concentration, mean ±SD","genotype SULT1A1 wt/wt, n = 60",48.69 ± 18.93 ng/mL
same,"plasma concentration, range","genotype SULT1A1 wt/wt, n = 60",(15.69–106.35) ng/mL
same,"plasma concentration, mean ±SD","genotype SULT1A2 *2/*2, n = 16",47.18 ± 20.97 ng/mL
same,"plasma concentration, median","genotype SULT1A2 *2/*2, n = 16",50.56 ng/mL
same,"plasma concentration, range","genotype SULT1A2 *2/*2, n = 16",(15.69–81.94) ng/mL
same,"plasma concentration, mean ±SD","genotype SULT1A2 *2/*3, n = 13",46.94 ± 17.33 ng/mL
same,"plasma concentration, range","genotype SULT1A2 *2/*3, n = 13",(17.43–90.66) ng/mL
same,"plasma concentration, mean ±SD","genotype SULT1A2 *3/*3, n = 5",38.35 ± 10.17 ng/mL
same,"plasma concentration, range","genotype SULT1A2 *3/*3, n = 5",(26.15–50.56) ng/mL
same,"plasma concentration, mean ±SD","genotype SULT1A2 wt/*2, n = 33",60.87 ± 31.96 ng/mL
same,"plasma concentration, median","genotype SULT1A2 wt/*2, n = 33",54.04 ng/mL
same,"plasma concentration, range","genotype SULT1A2 wt/*2, n = 33",(20.53–142.97) ng/mL
same,"plasma concentration, mean ±SD","genotype SULT1A2 wt/*3, n = 16",47.29 ± 17.70 ng/mL
same,"plasma concentration, median","genotype SULT1A2 wt/*3, n = 16",46.20 ng/mL
same,"plasma concentration, range","genotype SULT1A2 wt/*3, n = 16",(19.18–83.68) ng/mL
same,"plasma concentration, mean ±SD","genotype SULT1A2 wt/wt, n = 38",47.65 ± 19.19 ng/mL
same,"plasma concentration, median","genotype SULT1A2 wt/wt, n = 38",42.71 ng/mL
same,"plasma concentration, range","genotype SULT1A2 wt/wt, n = 38",(15.69–99.37) ng/mL
same,"plasma concentration, mean ±SD","genotype SULT1E1 *2/*2, n = 5",49.86 ± 8.94 ng/mL
same,"plasma concentration, mean ±SD","genotype SULT1E1 wt/*2, n = 28",47.65 ± 19.38 ng/mL
same,"plasma concentration, median","genotype SULT1E1 wt/*2, n = 28",47.94 ng/mL
same,"plasma concentration, range","genotype SULT1E1 wt/*2, n = 28",(20.53–90.66) ng/mL
same,"plasma concentration, mean ±SD","genotype SULT1E1 wt/wt, n = 88",51.48 ± 25.13 ng/mL
same,"plasma concentration, range","genotype SULT1E1 wt/wt, n = 88",(15.69–142.97) ng/mL
"CC/C(=C(\c1ccccc1)c1ccc(OCCN(C)C)cc1)c1ccccc1 [Tamoxifen, reference compound]","plasma concentration, mean ±SD","genotype CYP2D6 I/I, n = 1",130.54 ± 0.00 ng/mL
same,"plasma concentration, median","genotype CYP2D6 I/I, n = 1",130.54 ng/mL
same,"plasma concentration, range","genotype CYP2D6 I/I, n = 1",(130.54–130.54) ng/mL
same,"plasma concentration, range","genotype CYP2D6 I/P, n = 8",(88.08–289.96) ng/mL
same,"plasma concentration, mean ±SD","genotype CYP2D6 P/P, n = 2",278.43 ± 132.13 ng/mL
same,"plasma concentration, median","genotype CYP2D6 P/P, n = 2",278.43 ng/mL
same,"plasma concentration, range","genotype CYP2D6 P/P, n = 2",(185.00–371.83) ng/mL
same,"plasma concentration, mean ±SD","genotype CYP2D6 wt/I, n = 4",208.48 ± 66.06 ng/mL
same,"plasma concentration, range","genotype CYP2D6 wt/I, n = 4",(151.94–302.03) ng/mL
same,"plasma concentration, mean ±SD","genotype CYP2D6 wt/P, n = 26",209.57 ± 121.53 ng/mL
same,"plasma concentration, range","genotype CYP2D6 wt/P, n = 26",(89.79–576.23) ng/mL
same,"plasma concentration, mean ±SD","genotype CYP2D6 wt/wt, n = 78",203.05 ± 80.53 ng/mL
same,"plasma concentration, range","genotype CYP2D6 wt/wt, n = 78",(77.10–573.83) ng/mL
same,"plasma concentration, range","genotype CYP2D6 wtxN/P, n = 2",(102.91–264.41) ng/mL
same,"plasma concentration, mean ±SD","genotype CYP3A4 wt/*1B, n = 3",260.69 ± 136.19 ng/mL
same,"plasma concentration, median","genotype CYP3A4 wt/*1B, n = 3",261.00 ng/mL
same,"plasma concentration, range","genotype CYP3A4 wt/*1B, n = 3",(124.35–396.73) ng/mL
same,"plasma concentration, mean ±SD","genotype CYP3A4 wt/*3, n = 2",212.83 ± 68.55 ng/mL
same,"plasma concentration, median","genotype CYP3A4 wt/*3, n = 2",212.83 ng/mL
same,"plasma concentration, range","genotype CYP3A4 wt/*3, n = 2",(164.35–261.30) ng/mL
same,"plasma concentration, mean ±SD","genotype CYP3A4 wt/*17, n = 9",230.28 ± 153.17 ng/mL
same,"plasma concentration, range","genotype CYP3A4 wt/*17, n = 9",(88.08–573.83) ng/mL
same,"plasma concentration, mean ±SD","genotype CYP3A4 wt/wt, n = 107",198.93 ± 89.59 ng/mL
same,"plasma concentration, range","genotype CYP3A4 wt/wt, n = 107",(77.10–576.23) ng/mL
same,"plasma concentration, mean ±SD","genotype CYP3A5 *3/*3, n = 117",204.98 ± 96.33 ng/mL
same,"plasma concentration, range","genotype CYP3A5 *3/*3, n = 117",(77.10–576.23) ng/mL
same,"plasma concentration, mean ±SD","genotype CYP3A5 wt/*3, n = 6",164.16 ± 51.72 ng/mL
same,"plasma concentration, median","genotype CYP3A5 wt/*3, n = 6",160.17 ng/mL
same,"plasma concentration, range","genotype CYP3A5 wt/*3, n = 6",(112.43–235.19) ng/mL
same,"plasma concentration, mean ±SD","genotype SULT1A1 *2/*2, n = 15",205.87 ± 101.52 ng/mL
same,"plasma concentration, median","genotype SULT1A1 *2/*2, n = 15",161.90 ng/mL
same,"plasma concentration, range","genotype SULT1A1 *2/*2, n = 15",(102.43–396.73) ng/mL
same,"plasma concentration, mean ±SD","genotype SULT1A1 wt/*2, n = 46",204.84 ± 107.12 ng/mL
same,"plasma concentration, range","genotype SULT1A1 wt/*2, n = 46",(77.10–573.83) ng/mL
same,"plasma concentration, mean ±SD","genotype SULT1A1 wt/wt, n = 60",200.92 ± 86.14 ng/mL
same,"plasma concentration, range","genotype SULT1A1 wt/wt, n = 60",(88.08–576.23) ng/mL
same,"plasma concentration, range","genotype SULT1A2 *2/*2, n = 16",(95.67–396.73) ng/mL
same,"plasma concentration, mean ±SD","genotype SULT1A2 *2/*3, n = 13",222.50 ± 93.29 ng/mL
same,"plasma concentration, median","genotype SULT1A2 *2/*3, n = 13",240.78 ng/mL
same,"plasma concentration, range","genotype SULT1A2 *2/*3, n = 13",(112.43–371.37) ng/mL
same,"plasma concentration, median","genotype SULT1A2 *3/*3, n = 5",164.35 ng/mL
same,"plasma concentration, range","genotype SULT1A2 *3/*3, n = 5",(122.20–302.03) ng/mL
same,"plasma concentration, mean ±SD","genotype SULT1A2 wt/*2, n = 33",227.33 ± 131.55 ng/mL
same,"plasma concentration, range","genotype SULT1A2 wt/*2, n = 33",(88.08–576.23) ng/mL
same,"plasma concentration, range","genotype SULT1A2 wt/*3, n = 16",(89.79–378.32) ng/mL
same,"plasma concentration, range","genotype SULT1A2 wt/wt, n = 38",(77.10–375.04) ng/mL
same,"plasma concentration, mean ±SD","genotype SULT1E1 *2/*2, n = 5",232.36 ± 83.23 ng/mL
same,"plasma concentration, median","genotype SULT1E1 *2/*2, n = 5",202.74 ng/mL
same,"plasma concentration, range","genotype SULT1E1 *2/*2, n = 5",(166.20–375.04) ng/mL
same,"plasma concentration, mean ±SD","genotype SULT1E1 wt/*2, n = 28",200.49 ± 77.50 ng/mL
same,"plasma concentration, range","genotype SULT1E1 wt/*2, n = 28",(77.10–368.73) ng/mL
same,"plasma concentration, mean ±SD","genotype SULT1E1 wt/wt, n = 88",202.17 ± 101.97 ng/mL
same,"plasma concentration, range","genotype SULT1E1 wt/wt, n = 88",(89.79–576.23) ng/mL
4-hydroxy-tamoxifen [4-OH-tamoxifen],median plasma concentration,[1],6.75 ng/mL
